According to patent publication US8597646B2, “Methods and compositons featuring TGF-beta antagonists for the treatment of marfan syndrome and associated disorders” (The Johns Hopkins University, priority 2005, dated 2013):
Entries after “also recorded” stand apart in the source; their conditions may differ.

Columns and labels:
[1] = tested on: young patients with an aggressive rate of aortic growth; assay: Losartan in young patients with aggressive rate of aortic growth despite standard therapy; type: in vivo, human; settings: n=8, despite β-adrenergic/ACE blockade, monopotassium salt
Procedure: (§1) Markers of TGFβ antagonism have included reduced plasma levels of free TGFβ, reduced intracellular initiation of the TGFβ signaling cascade, and reduced tissue expression of TGFβ-responsive genes. […] Three independent measurements of the aortic root were made from the long axis echo view in systole at each of 3 time points (baseline, 2 and 4 months of treatment; FIG. 8A). All analyses were performed blinded to genotype and treatment arm. […] This represents the first therapeutic strategy for MFS that derives from interrogation of disease pathogenesis and the first possibility for primary prevention of disease manifestations.

mdx mice = assay: Forelimb and hindlimb grip strength and fatigue in mdx mice; type: in vivo, mouse
Procedure: Mice were continued on oral therapy for 6 months and sacrificed. […] Age-matched wild-type and mdx mice (placebo-treated) served as a control group. After 6 months of treatment, forelimb and hindlimb grip strength was assessed using an automated grip strength meter (Columbus Instruments, Columbus, Ohio). The experiments for forelimb and hindlimb grip strength testing were conducted at different days allowing for a minimum recovery period of 10 days. Total peak force (in Newtons) was determined by an electronic strain gauge as previously described and corrected for body weight (Wagner, K. R., et al. (2002) Ann Neurol 52, 832-6). Five measurements within 2 minutes were taken from each animal. The three highest measurements for each animal were averaged to give the strength score. The degree of fatigue was calculated by comparing the first two pulls to the last two pulls with the decrement between pulls 1+2 and pulls 4+5 providing a measure of fatigue. Similarly, functional measurements were performed in 6 month old fibrillin-1 deficient mice (Fbn1^mgR) (Pereira, L. et al. (1997) Nat Genet. 17, 218-22) after 5 months of treatment.

Fbn1C1039G/+ mice = assay: Muscle regeneration after cardiotoxin-induced injury in Fbn1C1039G/+ mice; type: in vivo, mouse; settings: 4 and 18 days after injury, monopotassium salt
Procedure: All mouse protocols were approved by the Animal Care and Use Committee of Johns Hopkins University School of Medicine. Creation of the mouse line harboring the Fbn1 mutation C1039G has been previously described (Judge, D. P. et al. (2004) J Clin Invest 114, 172-81). All analyses were performed in male mice after back-crossing (>9 times) this mutation into the C57BL/6J background, allowing valid comparisons between litters. Mice were sacrificed with an inhalation overdose of halothane (Sigma-Aldrich) or by cervical dislocation. […] Subsequently, mice were analyzed at 4, 7, 18 and 28 days after injury. For regeneration experiments in mdx mice we injected 150 μl of cardiotoxin into the tibialis anterior muscle of wild-type and mdx mice, either treated or untreated with TGFβ neutralizing antibody (n=6 each group) at 9 months of age and analyzed skeletal muscle at 4 days and 18 days after injection.
Mice were continued on oral therapy for 6 months and sacrificed. […] After 6 months of treatment, forelimb and hindlimb grip strength was assessed using an automated grip strength meter (Columbus Instruments, Columbus, Ohio). […] Total peak force (in Newtons) was determined by an electronic strain gauge as previously described and corrected for body weight (Wagner, K. R., et al. (2002) Ann Neurol 52, 832-6). […]

C1039G/+ mice = assay: Aortic root growth by echocardiography in C1039G/+ mice, 4 months of treatment; type: in vivo, mouse
Procedure: as §1

CCCCc1nc(Cl)c(CO)n1Cc1ccc(-c2ccccc2-c2nnn[nH]2)cc1.[K] [losartan, 2-butyl-4-chloro-1-[p-(o-1H-tetrazol-5-ylphenyl)benzyl]imidazole-5-methanol monopotassium salt] was tested. Which “Response of aortic growth in patients” value ([1]; listed as Losartan) did it give?
The value was “effective”.

And the “Response of aortic growth in patients” value [1]?
Its value is “remarkable response”.

What about the “Forelimb grip strength (peak force), male” value (mdx mice; 6 months of losartan, untreated mdx 1.25±0.15) of the same compound?
Its value is 1.64±0.29 N.

And the “Forelimb grip strength (peak force), female” value (mdx mice; 6 months of losartan, untreated mdx 1.32±0.12)?
Its value is 1.41±0.15 N.

And the “Hindlimb grip strength (peak force), female” value (mdx mice; 6 months of losartan, untreated mdx 1.39±0.14)?
Its value is 1.79±0.14 N.

And the “Hindlimb grip strength (peak force), male” value (mdx mice; 6 months of losartan, untreated mdx 1.45±0.19)?
The value was 1.89±0.23 N.

And the “Muscle fatigue, forelimb test, female” value (mdx mice; 6 months of losartan, untreated mdx 34.7±5.7)?
Its value is 15.2±6%.

What about the “Muscle fatigue, forelimb test, male” value (mdx mice; 6 months of losartan, untreated mdx 36.3±6.5) of the same compound?
Its value is 16.3±5%.

What about the “Muscle fatigue, hindlimb test, female” value (mdx mice; 6 months of losartan, untreated mdx 37.6±6) of the same compound?
The value was 17.1±4%.

And the “Muscle fatigue, hindlimb test, male” value (mdx mice; 6 months of losartan, untreated mdx 39.5±6)?
The value was 16.2%±5.

What about the “Muscle fatigue in response to repetitive challenge, in words” value (mdx mice; 6 months of treatment) of the same compound?
Its value is “significantly less muscle fatigue”.

And the “Grip strength versus untreated mdx mice, in words” value (mdx mice; 6 months of treatment, male and female)?
Its value is “increased forelimb and hindlimb grip strength”.

What about the “Muscle regeneration after cardiotoxin injury, in words” value (Fbn1C1039G/+ mice; listed as Losartan) of the same compound?
The value was “rescued; also recorded: normal initiation of muscle regeneration”.

And the “Muscle regeneration after cardiotoxin injury, in words” value (Fbn1C1039G/+ mice)?
Its value is “markedly improved”.

What about the “Aortic growth during the 4 months of treatment” value (C1039G/+ mice; C1039G/+ mice from 7 weeks of age, losartan 50 mg/kg or propranolol 40 mg/kg, aortic root, echo, placebo 0.44±0.09) of the same compound?
The value was 0.03±0.07 mm.

And the “Aortic growth / protection, in words” value (C1039G/+ mice; C1039G/+ mice, compared with wild-type or with losartan)?
The value was “indistinguishable from that seen in wild-type mice”.
